Assay results taken from patent US20090298942A1, “ANIMAL COMPOSITION” (priority 2002, published 2009).

The compounds below were run on dogs (assay: Example 2: success at learning the discrimination task (Test B) after twenty two days on the assigned diet). Details: 0.3% amino acid added to control food product with approximately 2% leucine.
Assay type: in vivo
Protocol: The baseline learning capability of each dog was determined in a discrimination task (Test A) allowing the dogs to be divided into two groups, slow and fast learners. The slow and fast learners were randomly assigned to diet A, B, C or D. Dogs remained on their assigned diet for a period of twenty two days and their learning capability was then re evaluated with another discrimination task (Test B). The time to successfully learn the discrimination task, the total number of discrimination attempts, and the proportion of correct responses by each dog was recorded.
Test B was introduced in stages in a similar way to Test A. Again each dog was in the test area for up to an hour depending on the length of time that it took for the dog to complete the task.
Stage 1 The food preference test was repeated where necessary.
Stage 2 The dog was taken down the side of each box and encouraged to enter the food drop area from the rear by throwing food forward into the area.
Stage 3 The handler stood in front of one of the boxes and encouraged the dog to go down the side and into the box on its own. As its head reached the end of the entrance passage food was dropped by hand over the front panel into the area. This was repeated at random with both boxes.
Stage 4 The dog was placed centrally about 2.5 m back from the boxes and a red light was activated. The handler walked forward towards the light encouraging the dog to go forward along the side passage and into the box alone where a food pellet was dropped through the hatch as the dog's head reached the end of the entrance passage.
Stage 5 The dog was placed centrally approximately 3 m away from the equipment. A light was activated and the dog allowed time to scan the equipment. The dog was then released to make its own decision about which box to approach. If and when it entered the correct box a food pellet was dropped into the area.
These five introductory stages took, on average, 20 minutes, depending on the initial reaction of the dog to the surroundings. […]

| Compound | improvement in canine learning |
| --- | --- |
| CC[C@H](C)[C@H](N)C(=O)O [isoleucine] | Statistically significant improvements in canine learning were not demonstrated |
| CC(C)C[C@H](N)C(=O)O [leucine] | measurable improvement in canine learning |
| N[C@@H](Cc1c[nH]c2ccccc12)C(=O)O [tryptophan] | Statistically significant improvements in canine learning were not demonstrated |
